Measured values reported in US10793557B2, “Sting agonist compounds” (Merck Sharp & Dohme Corp., priority 2018, dated 2020).

Legend:
[1] = test system: secretion of interferon-beta from THP1 cells; assay: IFN-β secretion in THP1 cell culture (5 h); type: cell-based; settings: Homo sapiens, THP-1, 5 h, 30 uM cGAMP = 100%; for activation at 30 µM: compound at 30 μM, read-out: % Effect at 30 μM relative to 2′3′-cGAMP; for activation at 3 µM: compound at 3 uM, read-out: % Effect relative to 2′3′-cGAMP (@ 3 uM)
Procedure: The ability of compounds to stimulate the secretion of interferon-beta from THP1 cells was measured using a human IFN-β AlphaLISA kit (Perkin Elmer, Cat. No. AL265F). The basic protocol is as follows:
A Labcyte Echo 550 acoustic dispenser was used to transfer 120 nL of compound dissolved in DMSO into the wells of an empty, sterile 384-well microplate, (Corning, Cat. No. 3712). THP1 cells (American Type Culture Collection, Cat. No. TIB202) previously frozen in Recovery Medium (Life Technologies, Cat. No. 12648-010) were thawed and immediately diluted 10-fold into 37° C. assay medium (RPMI 1640+L-Glutamine & phenol red, Life Technologies, Cat. No. 11875-085; 0.5% heat inactivated fetal bovine serum, Sigma Aldrich, Cat. No. F4135; 1 mM Sodium Pyruvate, Life Technologies, Cat. No. 11360-070; 1× non-essential amino acids; Life Technologies, Cat. No. 11140-050). The cell viability and count was ascertained using a Beckman Coulter V-Cell XR cell counter. The cells suspension was centrifuged at 200×g for 5 min at RT. Cells were resuspended to a density of 0.8×10^6/mL in 37° C. assay medium. Subsequent liquid transfers were performed using either a Matrix electronic multichannel pipette or an Agilent Bravo Automated Liquid Handling Platform.
The assay was started by dispensing 40 μL of the previously prepared cell suspension into the wells of the plate containing compounds. After 5 h incubation at 37° C., 5% CO2 in a humidified atmosphere, the plate of cells and compounds was centrifuged at 200×g for 5 min at RT. From each well, 5 μL of supernatant was transferred into corresponding wells of a white 384-well plate (Perkin Elmer, Cat. No. 6005620). To these supernatant-containing wells was added 10 μL of 5× Anti-Analyte Acceptor beads (50 μg/mL of AlphaLISA HiBlock Buffer) and incubated for 30 min at RT while shaking on an orbital plate shaker. To each well was added 10 μL of 5× Biotinylated Antibody Anti-analyte (5 nM in AlphaLISA HiBlock Buffer) and incubated on an orbital plate shaker for 60 min at RT or overnight at 4° C. To each well was added 25 μL of 2× SA-Donor beads (80 μg/mL in AlphaLISA HiBlock Buffer) and incubated for 30-45 min at RT in the dark while shaking on an orbital plate shaker. The plate was then read on a Perkin Elmer Envision (λex=680 nm, […]). The percent effect of the AlphaLISA signal at each compound concentration was calculated based on 30 uM cGAMP positive controls and 0.3% DMSO negative controls. The plot of percent effect versus the log of compound concentration was fit with a 4-parameter concentration response equation to calculate EC50 values. The test compounds were tested at concentrations 30000, 10000, 3333, 1111, 370.4, 123.4, 41.2, 13.7, 4.6, and 1.5 nM with 0.3% residual DMSO. The control compound, cGAMP was tested at concentrations 100000, 33333, 11111, 3704, 1235, 412, 137, 46, and 15 nM with 0.3% residual DMSO.
Compounds of the disclosure were evaluated for IFN-β secretion in THP1 cell culture as described above. The following table tabulates the biological data for these compounds as percent activation relative to 2′3′-cGAMP at the 30 µM concentration.

[2] = target: T1, full-length HAQ STING (Homo sapiens, UniProt Q86WV6, G230A/H232R/R293Q/R71H); assay: 3H-cGAMP filtration binding assay (HAQ STING); settings: competition with tritiated cGAMP, HAQ STING membrane
T1 construct: AviTag (after GG linker) (C); HRV3C cleavage site (after GS linker) (C); HIS8 (C); made in house; host or cells: Trichoplusia ni (Hi-Five) insect cells infected with baculovirus (virus generated and amplified in Sf21 cells); used as a washed membrane preparation
T1 sequence (Q86WV6 with tags, fused parts or gaps R71H/G230A/H232R/R293Q): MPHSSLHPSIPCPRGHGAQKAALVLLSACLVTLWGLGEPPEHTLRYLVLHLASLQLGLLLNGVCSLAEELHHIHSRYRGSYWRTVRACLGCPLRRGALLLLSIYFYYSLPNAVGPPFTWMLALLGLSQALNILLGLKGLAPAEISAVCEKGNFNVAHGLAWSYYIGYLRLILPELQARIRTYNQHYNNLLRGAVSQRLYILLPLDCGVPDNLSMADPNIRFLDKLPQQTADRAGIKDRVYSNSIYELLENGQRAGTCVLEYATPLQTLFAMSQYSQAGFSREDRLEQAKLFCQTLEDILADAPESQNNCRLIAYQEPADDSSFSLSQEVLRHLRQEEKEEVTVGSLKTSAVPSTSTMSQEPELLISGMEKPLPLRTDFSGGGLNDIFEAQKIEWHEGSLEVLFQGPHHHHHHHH
Excerpt: The ability of compounds to bind STING is quantified by the ability to compete with tritiated cGAMP ligand for human STING receptor membrane using a radioactive filter-binding assay. The binding assay employs STING receptor obtained from Hi-Five cell membranes overexpressing full-length HAQ STING prepared in-house and tritiated cGAMP ligand also purified in-house.
(§1) The ability of compounds to bind STING is quantified by their ability to compete with tritiated cGAMP ligand for human STING receptor membrane using a radioactive filter-binding assay. The binding assay employs STING receptor obtained from Trichoplusia ni cell membranes (T. ni; Expression Systems, cat #94-002F, www.expressionsystems.com) overexpressing full-length HAQ STING and tritiated cGAMP ligand.
The basic HAQ STING filtration assay protocol is as follows:
The compounds were serially titrated by the Hamilton STARPlus CORE in a 96-well plate (Greiner, #651201) using a 1:3 ten-point dose response format. After compound preparation, a 2.2 ug/ml working concentration of STING membrane (SEQ. ID. No. 1) was prepared by diluting concentrated membrane into assay buffer (1×PBS; Invitrogen # SH30028.02) and douncing 7× using a manual tissue homogenizer (Wheaton, #357546). 148 uL of prepared membrane was then manually added to each well of a 96-well deep-well polypropylene plate (Fisher Scientific, #12-566-121). Following membrane addition, 2 uL of either titrated test compound, DMSO control (Sigma #276855), or cold cGAMP control was added to the appropriate wells using a BIOMEK FX. Compound and membrane then preincubated for 60 min at RT to allow compound binding to equilibrate. Following equilibration, 8 nM of [^3H]c-GAMP ligand was prepared by diluting into assay buffer, and 50 uL of this working stock was then manually added to each well of the assay plate. Plates were then incubated at RT for 60 min, and the contents of each assay plate were then filtered through a 96-well GF/B filter plate (PerkinElmer, #6005250) using a TOMTEC MACH III Cell Harvester equipped with 20 mM HEPES buffer (Fisher Scientific, # BP299500). The filter plates were then dried at 55° C. for 30 min using a pressurized oven before 30 uL of ULTIMA GOLD F scintillate was added to each well. Tritium levels for each reaction well were then measured using a PerkinElmer TopCount plate reader.
(§2) After normalization to controls, the percent activity for each compound concentration was calculated by measuring the amount of remaining radioactivity. The plot of percent activity versus the log of compound concentration was fit with a 4-parameter dose response equation to calculate EC50 values.

[3] = target: T2, full-length WT STING (Homo sapiens, UniProt Q86WV6, H232R); assay: 3H-cGAMP filtration binding assay (WT STING); settings: competition with tritiated cGAMP, WT STING membrane
T2 construct: AviTag (after gg linker) (C); HRV3C cleavage site (after gs linker) (C); HIS8 (C); made in house; host or cells: Trichoplusia ni (Hi-Five) insect cells infected with baculovirus (virus generated and amplified in Sf21 cells); used as a washed membrane preparation
T2 sequence (Q86WV6 with tags, fused parts or gaps H232R): as the sequence (Q86WV6 with tags, fused parts or gaps R71H/G230A/H232R/R293Q) above, with H71R, A230G, Q293R counted along it
Procedure: as §1, with “WT” for “HAQ”
The basic WT STING filtration assay protocol is as follows:
16 nM of [^3H] c-GAMP ligand was prepared by diluting into assay buffer, and 50 uL of this working stock was manually added to each well of the assay plate. After ligand addition, 2 uL of either titrated test compound, DMSO control (Sigma #276855), or cold cGAMP control was added to the appropriate wells using a BIOMEK FX. The serially titrated compound was prepared on a Hamilton STARPlus CORE in a 96-well plate (Greiner, #651201) using a 1:3 ten-point dose response format. Following compound addition, a 2.2 ug/ml working concentration of STING membrane (SEQ. ID. No. 3) was prepared by diluting concentrated membrane into assay buffer (1×PBS; Invitrogen # SH30028.02) and douncing 7× using a manual tissue homogenizer (Wheaton, #357546). 148 uL of this prepared membrane was then manually added to each well of a 96-well deep-well polypropylene plate (Fisher Scientific, #12-566-121). Compound, ligand, and membrane then incubated for 60 min at RT before the contents of each assay plate were filtered through a 96-well GF/B filter plate (PerkinElmer, #6005250) using a TOMTEC MACH III Cell Harvester equipped with 20 mM HEPES buffer (Fisher Scientific, # BP299500). The filter plates were then dried at 55° C. for 30 min using a pressurized VWR oven before 30 uL of ULTIMA GOLD F scintillate was added to each well. Tritium levels for each reaction well were then measured using a PerkinElmer TopCount plate reader.
as §2

Structure (SMILES)	EC50 [2] [nM]	EC50 [3] [nM]	activation at 30 µM [1] [%]	activation at 3 µM [1] [%]
COc1cc2sc(C(=O)CCC(=O)O)cc2cc1CCCNc1nc2cc(C(=O)CCC(=O)O)sc2cc1OC [Example 75, 4-(5-((3-(2-(3-carboxypropanoyl)-6-methoxybenzo[b]thiophen-5-yl)propyl)amino)-6-methoxythieno[3,2-b]pyridin-2-yl)-4-oxobutanoic acid]	139	691	63	
COc1cc2sc(C(=O)C[C@H](C)C(=O)O)cc2c(Br)c1OCCCOc1c(OC)cc2sc(C(=O)C[C@H](C)C(=O)O)cc2c1Br [Example 134, (2S,2′S)-4,4′-(5,5′-(propane-1,3-diylbis(oxy))bis(4-bromo-6-methoxybenzo[b]thiophene-5,2-diyl))bis(2-methyl-4-oxobutanoic acid)]	22	233	89	
COc1cc2sc(CC[C@H](C)C(=O)O)cc2cc1OCCCOc1c(OC)cc2sc(C(=O)C[C@H](C)C(=O)O)cc2c1F [Example 158, (S)-4-(5-(3-((2-((S)-3-carboxybutyl)-6-methoxybenzo[b]thiophen-5-yl)oxy)propoxy)-4-fluoro-6-methoxybenzo[b]thiophen-2-yl)-2-methyl-4-oxobutanoic acid]	2	32	43	
COc1cc2sc(C(=O)C[C@H](C)C(=O)O)cc2cc1OCCCOc1c(O)cc2sc(C(=O)C[C@H](C)C(=O)O)cc2c1Cl [Example 183, (S)-4-(5-(3-((2-((S)-3-carboxybutanoyl)-4-chloro-6-hydroxybenzo[b]thiophen-5-yl)oxy)propoxy)-6-methoxybenzo[b]thiophen-2-yl)-2-methyl-4-oxobutanoic acid]	1	3		127

Further lines, with some results ahead:

EC50 [2] [nM]	EC50 [3] [nM]	Structure (SMILES)	activation at 30 µM [1] [%]	activation at 3 µM [1] [%]
3	21	COc1cc2sc(C(=O)C[C@H](C)C(=O)O)cc2cc1CCCOc1nc2cc(C(=O)CCC(=O)O)sc2cc1OC [Example 14, (S)-4-(5-(3-((2-(3-carboxypropanoyl)-6-methoxythieno[3,2-b]pyridin-5-yl)oxy)propyl)-6-methoxybenzo[b]thiophen-2-yl)-2-methyl-4-oxobutanoic acid]	77	
1	1	COc1cc2sc(C(=O)C[C@H](C)C(=O)O)cc2c(F)c1OCCCOc1cc2cc(C(=O)C[C@H](C)C(=O)O)sc2cc1O [Example 180, (S)-4-(5-(3-((2-((S)-3-Carboxybutanoyl)-4-fluoro-6-methoxybenzo[b]thiophen-5-yl)oxy)propoxy)-6-hydroxybenzo [b]thiophen-2-yl)-2-methyl-4-oxobutanoic acid]		121
1		COc1cc2sc(C(=O)C[C@H](C)C(=O)O)cc2c(F)c1OCCCOc1c(OC)cc2sc(C(=O)[C@@H]3CC[C@H]3C(=O)O)cc2c1F [Example 99, trans-2-(5-(3-((2-((S)-3-carboxybutanoyl)-4-fluoro-6-methoxybenzo[b]thiophen-5-yl)oxy)propoxy)-4-fluoro-6-methoxybenzo[b]thiophene-2-carbonyl)cyclobutane carboxylic acid]		
1		COc1cc2sc(C(=O)C[C@H](C)C(=O)O)cc2c(F)c1OCCCOc1c(OC)cc2sc(C(=O)[C@@H]3CC[C@H]3C(=O)O)cc2c1F [Example 98, trans-2-(5-(3-((2-((S)-3-carboxybutanoyl)-4-fluoro-6-methoxybenzo[b]thiophen-5-yl)oxy)propoxy)-4-fluoro-6-methoxybenzo[b]thiophene-2-carbonyl)cyclobutane carboxylic acid]	92	
20	69	COc1cc2sc(C(=O)C[C@H](C)C(=O)O)cc2c(F)c1OCCCOc1cc2sc(C(=O)[C@@H]3CC[C@H]3C(=O)O)cc2c(F)c1OC (single isomer, unassigned) [Example 97]		
